Source: patent US20180153995A1, “USE OF ANTIMICROBIAL POLYMERS FOR RE-SENSITIZATION OF MICROORGANISMS UPON EMERGENCE OF RESISTANCE TO ANTI-MICROBIAL AGENTS” (Technion Research & Development Foundation Limited, priority 2008, published 2018)
Read-outs that look alike come from different tables or passages of the source.

Key:
MRSA 15903 = assay: microbe, parasite or virus in culture; type: cell-based, Staphylococcus aureus
Method in brief: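 Values are FIC indexes, summing each agent's MIC in combination divided by its MIC alone, for MRSA 15903. Interpretation: <0.5 clear re-sensitization, 0.5 to 4 marginal or none, >4 antagonistic.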

S. aureus 15877 = assay: Antibiotic MIC by microdilution with or without sub-MIC polymer; type: cell-based, Staphylococcus aureus
S. aureus 17314 = assay: as above; type: cell-based, Staphylococcus aureus; details: S. aureus 17314
E. coli 14384 = assay: as above; type: cell-based, Escherichia coli; details: E. coli 14384
Procedure: (§1) MICs were determined by microdilution susceptibility testing in 96-well plates (by Nunc) using inocula of 10^5 bacteria per ml. Cell populations were evaluated by optical density measurements at 620 nm and were calibrated against a set of standards. Hundred (100) μl of a bacterial suspension were added to 100 μl of culture medium (control) or to 100 μl of culture medium containing various polymer concentrations in 2-fold serial dilutions. Inhibition of proliferation was determined by optical density measurements at 620 nm after an incubation period of 24 hours at 37° C.
(§2) 100 μl of a bacterial suspension were added to 100 μl of culture medium (control) or to 100 μl of culture medium containing various antibiotic and C14(9-ene)KKNC12KNH2 (SEQ ID NO: 5) concentrations in 2-fold serial dilutions. Inhibition of proliferation was determined by optical density measurements at 620 nm after an incubation period of 24 hours at 37° C.

E. coli 16327 = assay: microbe, parasite or virus in culture
E. coli 16329 = type: cell-based, Escherichia coli; details: E. coli U-16329
Procedure: as §1, §2

E. coli 14182 = assay: Antibiotic MIC by microdilution with or without sub-MIC polymer; type: cell-based, Escherichia coli
S. maltophila 748 = assay: as above; type: cell-based, Stenotrophomonas maltophila
[1] = tested on: E. coli K-12 resistant wild type; type: cell-based, Escherichia coli; details: E. coli AG100 (w.t.)
S. aureus 43300 = assay: Antibiotic MIC by microdilution with or without sub-MIC polymer; type: cell-based, Staphylococcus aureus
[2] = +¼ MIC (1.6 μM) C12(5-ene)KKNC12KNH2
[3] = +⅓ MIC (2.1 μM) C12(5-ene)KKNC12KNH2
[4] = +¼ MIC (1.6 μM) C12K(KNC12K)2NH2
[5] = +¼ MIC (1.6 μM) C14(9-ene)KKNC12KNH2
[6] = +¼ MIC (1.6 μM) C16(9-ene)KKNC12KNH2
[7] = +½ MIC (3.12 μM) C12K(KNC12K)2NH2
[8] = +½ MIC (3.12 μM) C14(9-ene)KKNC12KNH2
[9] = +½ MIC (3.12 μM) C16(9-ene)KKNC12KNH2
[10] = +⅓ MIC (2.1 μM) C12K(KNC12K)2NH2
[11] = +⅓ MIC (2.1 μM) C14(9-ene)KKNC12KNH2
[12] = +⅓ MIC (2.1 μM) C16(9-ene)KKNC12KNH2

`CC[C@H]1OC(=O)[C@H](C)[C@@H](O[C@H]2C[C@@](C)(OC)[C@@H](O)[C@H](C)O2)[C@H](C)[C@@H](O[C@@H]2O[C@H](C)C[C@H](N(C)C)[C@H]2O)[C@](C)(O)C[C@@H](C)C(=O)[C@H](C)[C@@H](O)[C@]1(C)O` [Erythromycin, erythromycin] was tested, and the MIC (MRSA 15903; MRSA 15903, +¼ polymer MIC (1.6 μM) NC12(KNC12K)2NH2) was 1 µg/mL, the MIC (MRSA 15903; MRSA 15903, +½ polymer MIC (3.1 μM) NC12(KNC12K)2NH2) was 0.016 µg/mL and the “MIC, ½ + MIC OAK” value (MRSA 15903; MRSA 15903, with C12K(KNC10K)3NH2 (SEQ ID NO: 10) at ½ of its MIC) was 0.13 to 0.25 µg/mL. For the same compound, the “MIC, ⅓ + MIC OAK” value (MRSA 15903; MRSA 15903, with C12K(KNC10K)3NH2 (SEQ ID NO: 10) at ⅓ of its MIC) was 0.5 µg/mL, the MIC (MRSA 15903; S. aureus CI-15903, +polymer (¼ MIC) C12(5-ene)KKNC12KNH2) was 0.5 µg/mL and the MIC (MRSA 15903; S. aureus CI-15903, +polymer (½ MIC) C12(5-ene)KKNC12KNH2) was 0.1 µg/mL. For the same compound, the MIC (MRSA 15903; S. aureus CI-15903, +polymer (⅓ MIC) C12(5-ene)KKNC12KNH2) was 0.1 µg/mL, the MIC (MRSA 15903; Staphylococcus aureus, MRSA, 24 h, MRSA 15903, antibiotic alone (Table 22), read-out: MIC, Alone) was 1 µg/mL and the MIC (MRSA 15903; Staphylococcus aureus, MRSA, 24 h, MRSA 15903, antibiotic alone, read-out: MIC) was 0.5 µg/mL. For the same compound, the MIC (MRSA 15903; Staphylococcus aureus, MRSA, 24 h, S. aureus CI-15903, alone, read-out: MIC) was 0.5 µg/mL, the “Antibiotic MIC” value (S. aureus 15877; [2]) was greater than 512 µg/mL and the “Antibiotic MIC” value (S. aureus 15877; +½ MIC (3.12 μM) C12(5-ene)KKNC12KNH2) was greater than 512 µg/mL. The “Antibiotic MIC” value (S. aureus 15877; [3]) was greater than 512 µg/mL, the “Antibiotic MIC” value (S. aureus 15877; no polymer (None), Table 8) was greater than 512 µg/mL and the “Antibiotic MIC” value (S. aureus 17314; [4]) was 1 µg/mL. The “Antibiotic MIC” value (S. aureus 17314; +¼ MIC (1.6 μM) C12KKNC12KNH2) was 1 µg/mL, the “Antibiotic MIC” value (S. aureus 17314; [5]) was 1 µg/mL and the “Antibiotic MIC” value (S. aureus 17314; [6]) was 1 µg/mL. The “Antibiotic MIC” value (S. aureus 17314; [7]) was 0.5 to 1 µg/mL, the “Antibiotic MIC” value (S. aureus 17314; +½ MIC (3.12 μM) C12KKNC12KNH2) was 1 µg/mL and the “Antibiotic MIC” value (S. aureus 17314; [8]) was 1 µg/mL. For the same compound, the “Antibiotic MIC” value (S. aureus 17314; [9]) was 0.5 µg/mL, the “Antibiotic MIC” value (S. aureus 17314; [10]) was 0.5 to 1 µg/mL and the “Antibiotic MIC” value (S. aureus 17314; +⅓ MIC (2.1 μM) C12KKNC12KNH2) was 1 µg/mL. For the same compound, the “Antibiotic MIC” value (S. aureus 17314; [11]) was 1 µg/mL, the “Antibiotic MIC” value (S. aureus 17314; [12]) was 1 µg/mL and the “Antibiotic MIC” value (S. aureus 17314; no polymer (None), Table 9) was 1 µg/mL. The “Antibiotic MIC” value (S. aureus 17314; no polymer (None), Table 10) was 1 µg/mL, the “Antibiotic MIC” value (S. aureus 17314; no polymer (None), Table 11) was 1 µg/mL and the “Antibiotic MIC” value (S. aureus 17314; no polymer (None), Table 12) was 1 µg/mL. The “Antibiotic MIC” value (E. coli 14384; +¼ MIC C12K(NC8K)5NH2) was 32 to 64 µg/mL, the “Antibiotic MIC” value (E. coli 14384; [8]) was 32 µg/mL and the “Antibiotic MIC” value (E. coli 14384; +½ MIC C12K(NC8K)5NH2) was 4 to 8 µg/mL. For the same compound, the “Antibiotic MIC” value (E. coli 14384; +⅓ MIC C12K(NC8K)5NH2) was 32 µg/mL, the “Antibiotic MIC in presence of C12K(NC8K)7NH2 (SEQ ID NO: 4), +½ MIC” value (“Antibiotic MIC … (SEQ ID NO: 4), +½ MIC” for short) (E. coli 14384; polymer at ½ of its MIC) was 8 to 16 µg/mL and the “Antibiotic MIC in presence of C12K(NC8K)7NH2 (SEQ ID NO: 4), +⅓ MIC” value (E. coli 14384; polymer at ⅓ of its MIC) was 16 to 32 µg/mL. For the same compound, the “MIC, ½ + MIC OAK” value (E. coli 16327; E. coli U16327, with C12K(KNC10K)3NH2 (SEQ ID NO: 10) at ½ of its MIC) was 4 to 8 µg/mL, the “MIC, ⅓ + MIC OAK” value (E. coli 16327; E. coli U16327, with C12K(KNC10K)3NH2 (SEQ ID NO: 10) at ⅓ of its MIC) was 8 µg/mL and the “Antibiotic MIC … (SEQ ID NO: 4), +½ MIC” value (E. coli 16327; E. coli U-16327, polymer at ½ of its MIC) was 32 µg/mL. For the same compound, the “Antibiotic MIC” value (E. coli 16329; +½ MIC C12K(NC8K)5NH2) was 32 µg/mL, the “Antibiotic MIC … (SEQ ID NO: 4), +½ MIC” value (E. coli 16329; polymer at ½ of its MIC) was 16 µg/mL and the “Antibiotic MIC” value (E. coli 14182; +½ MIC C12K(NC8K)5NH2) was 8 to 16 µg/mL. The “Antibiotic MIC” value (E. coli 14182; +⅓ MIC C12K(NC8K)5NH2) was 32 to 64 µg/mL, the “Antibiotic MIC in presence of C12K(NC8K)7NH2 (SEQ ID NO: 4), +¼ MIC” value (E. coli 14182; polymer at ¼ of its MIC) was 32 µg/mL and the “Antibiotic MIC … (SEQ ID NO: 4), +½ MIC” value (E. coli 14182; polymer at ½ of its MIC) was 8 µg/mL. The “Antibiotic MIC in presence of C12K(NC8K)7NH2 (SEQ ID NO: 4), +⅓ MIC” value (E. coli 14182; polymer at ⅓ of its MIC) was 16 µg/mL, the “Antibiotic MIC” value (S. maltophila 748; +¼ MIC (1.6 μM) C12K(KNC12K)3NH2) was 512 µg/mL and the “Antibiotic MIC” value (S. maltophila 748; +⅓ MIC (2.1 μM) C12K(KNC12K)3NH2) was 512 µg/mL. The “Antibiotic MIC” value (S. maltophila 748; no polymer (None), Table 13) was 512 µg/mL, the “Antibiotic MIC … (SEQ ID NO: 4), +½ MIC” value ([1]; polymer at ½ of its MIC (Table 16)) was 8 to 16 µg/mL and the “Antibiotic MIC in presence of the OAK, +½ MIC” value ([1]; the OAK at ½ of its MIC (Table 17)) was 16 µg/mL. For the same compound, the “Antibiotic MIC” value (S. aureus 43300; [2]) was 512 µg/mL, the “Antibiotic MIC” value (S. aureus 43300; [4]) was greater than 512 µg/mL and the “Antibiotic MIC” value (S. aureus 43300; +¼ MIC (1.6 μM) C12KKNC12KNH2) was greater than 512 µg/mL. For the same compound, the “Antibiotic MIC” value (S. aureus 43300; [5]) was greater than 512 µg/mL, the “Antibiotic MIC” value (S. aureus 43300; [6]) was 512 µg/mL and the “Antibiotic MIC” value (S. aureus 43300; [7]) was greater than 512 µg/mL. For the same compound, the “Antibiotic MIC” value (S. aureus 43300; +½ MIC (3.12 μM) C12KKNC12KNH2) was greater than 512 µg/mL, the “Antibiotic MIC” value (S. aureus 43300; [8]) was greater than 512 µg/mL and the “Antibiotic MIC” value (S. aureus 43300; [9]) was 512 µg/mL. For the same compound, the “Antibiotic MIC” value (S. aureus 43300; [3]) was 512 µg/mL, the “Antibiotic MIC” value (S. aureus 43300; [10]) was greater than 512 µg/mL and the “Antibiotic MIC” value (S. aureus 43300; +⅓ MIC (2.1 μM) C12KKNC12KNH2) was greater than 512 µg/mL. The “Antibiotic MIC” value (S. aureus 43300; [11]) was greater than 512 µg/mL, the “Antibiotic MIC” value (S. aureus 43300; [12]) was 512 µg/mL and the “Antibiotic MIC” value (S. aureus 43300; no polymer (None), Table 8) was 512 µg/mL. For the same compound, the “Antibiotic MIC” value (S. aureus 43300; no polymer (None), Table 9) was greater than 512 µg/mL, the “Antibiotic MIC” value (S. aureus 43300; no polymer (None), Table 10) was 512 µg/mL and the “Antibiotic MIC” value (S. aureus 43300; no polymer (None), Table 11) was greater than 512 µg/mL. The “Antibiotic MIC” value (S. aureus 43300; no polymer (None), Table 12) was greater than 512 µg/mL.
